Measurements published in PMC10257182, “Discovery of senolytics using machine learning” (Nature Communications, 2023).
Where two headings read alike, the source gives them in different places.

How the values were obtained:
Type in all cases: cell-based, human
[1] = test system: senescent IMR90 ER:RAS cells (4-OHT-induced); assay: Nuclei count (Hoechst, high content imaging) senolytic assay, oncogene-induced senescence (OIS) model, senescent cells; details: Homo sapiens
From the text: (§1) To test for senolytic activity, we compared the effect of each compound on the total cell number (automated high content image-based analysis of total number of nuclei per well) in non-senescent and senescent IMR90 ER:RAS cultures treated with the top hits from the computational screen (Figs. 2e and 3a–d and Supplementary Fig. 4a–c). The drop in cell number compared to untreated controls is indicated by the nuclei count and reflects cell death[13],[15]. As positive control, we employed ouabain, a cardiac glycoside with well characterised senolytic activity.
(§2) We performed experimental validation of the compounds with z-score > 8 (Fig. 2e). […] We employed two cellular models of senescence: one of OIS and a second one of TIS. For the OIS case, we utilised IMR90 ER:RAS cells with 4-OHT at 100 nM. […] For the TIS model, we used A549 cells with etoposide at 100 μM. The exposure of the cells to etoposide lasted 48 h, after which period the cells were cultivated for a further three days with normal media.
(§3) IMR90 (CCL-186) human foetal lung fibroblasts and A549 (CCL-185) human lung adenocarcinoma cells were obtained from the American Type Culture Collection (ATCC, Manassas, VA). The cell lines were confirmed to be mycoplasma negative (Lonza MycoAlert, cat #LT07-118). IMR90 ER:RAS is a derivative of IMR90 cells expressing a switchable version of oncogenic H-Ras[84]. IMR90 ER:RAS and A549 cells were maintained in Dulbecco’s Modified Eagle Medium (DMEM, ThermoFisher) supplemented with foetal bovine serum (10%), L-glutamine (2 mM, ThermoFisher), and antibiotic-antimycotic solution (1%, ThermoFisher) and incubated under standard tissue culture conditions (37 °C and 5% CO2). For induction of the senescent phenotype, IMR90-ER:RAS cells were cultured in hydroxytamoxifen (4-OHT) (Sigma) added media at 100 nM final concentration. IMR90 were kept in culture for over 27 passages for replicative senescence. Cells were tested for mycoplasma on a regular basis.
(§4) Cells were seeded (50 μL per well) into 384-well plates (IMR90 ER:RAS cells in Nunc Optical Bottom Polybase Microplates [#142761, Thermo Scientific, Rochester, NY] and A549 cells in CELLSTAR Cell Culture Microplates [#781091, Greiner Bio-One, Kremsmünster, Austria]). Cells were incubated under standard tissue culture conditions for 24 h before the addition of compounds. Passage 14 IMR90 ER:RAS cells were seeded at 1300 cells per well in the control condition, and at 1600 cells per well in the senescent case. Passage 34 A549 cells were seeded at 7000 cells per well in the control condition, and at 10,000 cells per well in the senescent case.
(§5) Dose response plates were prepared with a DMSO control and a 10-point […] concentration range, and added to the compounds using a D300e digital dispenser (Tecan Trading AG, Switzerland) at a final concentration of between 10 μM and 10 nM. Every screened condition was carried out in triplicate. After 72 h of incubation with exposure to the compounds, cells were fixed by the addition of an equal volume of formaldehyde (8%, 50 μL; #BP531-500, Fisher Bioreagents, Fisher Scientific, Loughborough, Leicestershire) to the existing media, incubated at room temperature (30 min), and washed three times in phosphate-buffered saline (PBS). Cells were then permeabilised in Triton-X100 (0.1%, 50 μL) and incubated at room temperature (30 min) followed by three more washes with PBS.
(§6) Cells were stained with Hoechst 33342 for nuclei count (excitation/emission wavelength at 387/447 […], DAPI channel, original concentration at 10 mg/ml, final concentration at 2 μg/ml; H1399, Molecular Probes, Eugene, OR). The staining solution was prepared in bovine serum albumin solution (10%). The staining solution was added to each well (30 μL) and incubated in the dark at room temperature (30 min), followed by three washes with PBS and no final aspiration. Plates were foil sealed.

[2] = test system: non-senescent control A549 cells; assay: Nuclei count senolytic assay, TIS model, non-senescent control cells; details: Homo sapiens, A549, Control cells, mean, read-out: Mean % Cell Survival
Procedure: We performed a second validation of the effectiveness of our machine learning models using a different stressor. We focused on therapy-induced senescence (TIS, Supplementary Fig. 6a), where human epithelial cancerous cells (A549) were induced to become senescent by addition of etoposide. Cells were treated with 100 μM etoposide for 48 h, followed by another three days of exposure to media in standard conditions.
as §2, §3, §4, §5, §6
Plates were imaged on an ImageXpress micro XLS (Molecular Devices, Eugene, OR) equipped with a robotic plate loader (Scara4, PAA, UK).

[3] = test system: non-senescent control IMR90 ER:RAS cells; assay: Nuclei count (Hoechst, high content imaging) senolytic assay, OIS model, non-senescent control cells; details: Homo sapiens
From the text: as §1, §2, §3, §4, §5, §6

In the case of `Cc1c(-c2c(F)cc(C(N)=O)c3[nH]c4c(c23)CC[C@H](C(C)(C)O)C4)cccc1-n1c(=O)c2cccc(F)c2n(C)c1=O` [BMS 986142], the viability at 10 µM ([1]; IMR-90, 72 h, Senescent, log (dose) [M] -5, 72 h, mean n=3 (Fig 3C), read-out: Mean % Cell Survival) is reported as 97.6%, the viability at 4.677 µM ([1]; IMR-90, 72 h, Senescent, log (dose) [M] -5.33, 72 h, mean n=3 (Fig 3C), read-out: Mean % Cell Survival) is reported as 143% and the viability at 2.188 µM ([1]; IMR-90, 72 h, Senescent, log (dose) [M] -5.66, 72 h, mean n=3 (Fig 3C), read-out: Mean % Cell Survival) is reported as 96.7%. It also gave a viability at 1 µM ([1]; IMR-90, 72 h, Senescent, log (dose) [M] -6, 72 h, mean n=3 (Fig 3C), read-out: Mean % Cell Survival) of 102%, a viability at 0.4677 µM ([1]; IMR-90, 72 h, Senescent, log (dose) [M] -6.33, 72 h, mean n=3 (Fig 3C), read-out: Mean % Cell Survival) of 101% and a viability at 0.2188 µM ([1]; IMR-90, 72 h, Senescent, log (dose) [M] -6.66, 72 h, mean n=3 (Fig 3C), read-out: Mean % Cell Survival) of 100%. For the same molecule, the viability at 0.1 µM ([1]; IMR-90, 72 h, Senescent, log (dose) [M] -7, 72 h, mean n=3 (Fig 3C), read-out: Mean % Cell Survival) was 98.6%, the viability at 0.04677 µM ([1]; IMR-90, 72 h, Senescent, log (dose) [M] -7.33, 72 h, mean n=3 (Fig 3C), read-out: Mean % Cell Survival) was 109% and the viability at 0.02188 µM ([1]; IMR-90, 72 h, Senescent, log (dose) [M] -7.66, 72 h, mean n=3 (Fig 3C), read-out: Mean % Cell Survival) was 95.3%. The viability at 0.01 µM ([1]; IMR-90, 72 h, Senescent, log (dose) [M] -8, 72 h, mean n=3 (Fig 3C), read-out: Mean % Cell Survival) was 97.5%, the viability at 4.677 µM ([1]; IMR-90, Senescent cells, log (dose) [M] -5.33, individual replicates, SUP FIG 4C, read-out: % Cell Survival) was 133% and the viability at 0.4677 µM ([1]; IMR-90, Senescent cells, log (dose) [M] -6.33, individual replicates, SUP FIG 4C, read-out: % Cell Survival) was 103%. For the same molecule, the viability at 0.2188 µM ([1]; IMR-90, Senescent cells, log (dose) [M] -6.66, individual replicates, SUP FIG 4C, read-out: % Cell Survival) was 105%, the viability at 0.1 µM ([1]; IMR-90, Senescent cells, log (dose) [M] -7, individual replicates, SUP FIG 4C, read-out: % Cell Survival) was 91.6% and the viability at 0.02188 µM ([1]; IMR-90, Senescent cells, log (dose) [M] -7.66, individual replicates, SUP FIG 4C, read-out: % Cell Survival) was 94.3%. For the same molecule, the viability at 0.01 µM ([1]; IMR-90, Senescent cells, log (dose) [M] -8, individual replicates, SUP FIG 4C, read-out: % Cell Survival) was 90.3%, the viability at 0.01 µM ([1]; IMR-90, Senescent, log (dose) [M] -8, read-out: % Cell Survival) was 111% and the viability at 10 µM ([2]; log (dose) [M] -5) was 116%. The viability at 4.68 µM ([2]; log (dose) [M] -5.33) was 101%, the viability at 2.19 µM ([2]; log (dose) [M] -5.66) was 96.6% and the viability at 1 µM ([2]; log (dose) [M] -6) was 101%. The viability at 0.468 µM ([2]; log (dose) [M] -6.33) was 98%, the viability at 0.219 µM ([2]; log (dose) [M] -6.66) was 37.1% and the viability at 0.1 µM ([2]; log (dose) [M] -7) was 98.9%. It also gave a viability at 0.0468 µM ([2]; log (dose) [M] -7.33) of 33.5%, a viability at 0.0219 µM ([2]; log (dose) [M] -7.66) of 103% and a viability at 0.01 µM ([2]; log (dose) [M] -8) of 99.7%. The viability at 10 µM ([3]; IMR-90, 72 h, Control, log (dose) [M] -5, 72 h, mean n=3 (Fig 3C), read-out: Mean % Cell Survival) was 97.1%, the viability at 4.677 µM ([3]; IMR-90, 72 h, Control, log (dose) [M] -5.33, 72 h, mean n=3 (Fig 3C), read-out: Mean % Cell Survival) was 136% and the viability at 2.188 µM ([3]; IMR-90, 72 h, Control, log (dose) [M] -5.66, 72 h, mean n=3 (Fig 3C), read-out: Mean % Cell Survival) was 117%. It also gave a viability at 1 µM ([3]; IMR-90, 72 h, Control, log (dose) [M] -6, 72 h, mean n=3 (Fig 3C), read-out: Mean % Cell Survival) of 115%, a viability at 0.4677 µM ([3]; IMR-90, 72 h, Control, log (dose) [M] -6.33, 72 h, mean n=3 (Fig 3C), read-out: Mean % Cell Survival) of 97.6% and a viability at 0.2188 µM ([3]; IMR-90, 72 h, Control, log (dose) [M] -6.66, 72 h, mean n=3 (Fig 3C), read-out: Mean % Cell Survival) of 107%. The viability at 0.1 µM ([3]; IMR-90, 72 h, Control, log (dose) [M] -7, 72 h, mean n=3 (Fig 3C), read-out: Mean % Cell Survival) was 108%, the viability at 0.04677 µM ([3]; IMR-90, 72 h, Control, log (dose) [M] -7.33, 72 h, mean n=3 (Fig 3C), read-out: Mean % Cell Survival) was 105% and the viability at 0.02188 µM ([3]; IMR-90, 72 h, Control, log (dose) [M] -7.66, 72 h, mean n=3 (Fig 3C), read-out: Mean % Cell Survival) was 114%. The viability at 0.01 µM ([3]; IMR-90, 72 h, Control, log (dose) [M] -8, 72 h, mean n=3 (Fig 3C), read-out: Mean % Cell Survival) was 104%, the viability at 10 µM ([3]; IMR-90, Control cells, log (dose) [M] -5, individual replicates, SUP FIG 4C, read-out: % Cell Survival) was 104% and the viability at 2.188 µM ([3]; IMR-90, Control cells, log (dose) [M] -5.66, individual replicates, SUP FIG 4C, read-out: % Cell Survival) was 125%. It also gave a viability at 1 µM ([3]; IMR-90, Control cells, log (dose) [M] -6, individual replicates, SUP FIG 4C, read-out: % Cell Survival) of 119%, a viability at 0.2188 µM ([3]; IMR-90, Control cells, log (dose) [M] -6.66, individual replicates, SUP FIG 4C, read-out: % Cell Survival) of 108% and a viability at 0.1 µM ([3]; IMR-90, Control cells, log (dose) [M] -7, individual replicates, SUP FIG 4C, read-out: % Cell Survival) of 107%. For the same molecule, the viability at 0.04677 µM ([3]; IMR-90, Control cells, log (dose) [M] -7.33, individual replicates, SUP FIG 4C, read-out: % Cell Survival) was 108%, the viability at 0.02188 µM ([3]; IMR-90, Control cells, log (dose) [M] -7.66, individual replicates, SUP FIG 4C, read-out: % Cell Survival) was 116% and the viability at 0.01 µM ([3]; IMR-90, Control cells, log (dose) [M] -8, individual replicates, SUP FIG 4C, read-out: % Cell Survival) was 104%. It also gave a viability at 4.68 µM ([3]; IMR-90, Control, log (dose) [M] -5.33, read-out: % Cell Survival) of 99.7%, a viability at 2.19 µM ([3]; IMR-90, Control, log (dose) [M] -5.66, read-out: % Cell Survival) of 88.8% and a viability at 1 µM ([3]; IMR-90, Control, log (dose) [M] -6, read-out: % Cell Survival) of 97.9%. The viability at 0.468 µM ([3]; IMR-90, Control, log (dose) [M] -6.33, read-out: % Cell Survival) was 91.9%, the viability at 0.219 µM ([3]; IMR-90, Control, log (dose) [M] -6.66, read-out: % Cell Survival) was 111% and the viability at 0.1 µM ([3]; IMR-90, Control, log (dose) [M] -7, read-out: % Cell Survival) was 92.2%. The viability at 0.04677 µM ([3]; IMR-90, Control, log (dose) [M] -7.33, read-out: % Cell Survival) was 101%, the viability at 0.0219 µM ([3]; IMR-90, Control, log (dose) [M] -7.66, read-out: % Cell Survival) was 94.6% and the viability at 0.01 µM ([3]; IMR-90, Control, log (dose) [M] -8, read-out: % Cell Survival) was 95.3%.
